Assay results as given in ChEMBL document CHEMBL1201862, “PubChem BioAssay data set” (2004).
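Compound exposure: 48 hours, 5 concentrations, 96-well plates. GI50 marks 50% less growth.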 Active and inactive are the calls of the source. Rule as the data show it: active = GI50 up to about 1.1 µM and inactive = higher.

How the values were obtained:
Test in all cases: NCI tumour cell line growth inhibition, 48 h
786-0 = test system: 786-0
A498 = test system: A498
A549 = test system: A549
ACHN = test system: ACHN
BT-549 = test system: BT-549
CAKI-1 = test system: CAKI-1
CCRF-CEM = test system: CCRF-CEM
COLO 205 = test system: COLO 205
DU-145 = test system: DU-145
EKVX = test system: EKVX
HCC 2998 = test system: HCC 2998
HCT-116 = test system: HCT-116
HCT-15 = test system: HCT-15
HL-60 = test system: HL-60
HOP-62 = test system: HOP-62
HOP-92 = test system: HOP-92
HT-29 = test system: HT-29
Hs-578T = test system: Hs-578T
IGROV-1 = test system: IGROV-1
K562 = test system: K562
KM12 = test system: KM12
LOX IMVI = test system: LOX IMVI
M14 = test system: M14
MCF7 = test system: MCF7
MDA-MB-231 = test system: MDA-MB-231
MDA-MB-435 = test system: MDA-MB-435
MDA-N = test system: MDA-N
MOLT-4 = test system: MOLT-4
Malme-3M = test system: Malme-3M
NCI-H226 = test system: NCI-H226
NCI-H23 = test system: NCI-H23
NCI-H460 = test system: NCI-H460
NCI-H522 = test system: NCI-H522
NCI/ADR-RES = test system: NCI/ADR-RES
OVCAR-3 = test system: OVCAR-3
OVCAR-4 = test system: OVCAR-4
OVCAR-5 = test system: OVCAR-5
OVCAR-8 = test system: OVCAR-8
PC-3 = test system: PC-3
RPMI-8226 = test system: RPMI-8226
RXF 393 = test system: RXF 393
SF-268 = test system: SF-268
SF-295 = test system: SF-295
SF-539 = test system: SF-539
SK-MEL-28 = test system: SK-MEL-28
SK-MEL-2 = test system: SK-MEL-2
SK-MEL-5 = test system: SK-MEL-5
SK-OV-3 = test system: SK-OV-3
SN12C = test system: SN12C
SNB-19 = test system: SNB-19
SNB-75 = test system: SNB-75
SR = test system: SR
SW-620 = test system: SW-620
T47D = test system: T47D
TK-10 = test system: TK-10
U-251 = test system: U-251
UACC-257 = test system: UACC-257
UACC-62 = test system: UACC-62
UO-31 = test system: UO-31
DMS-114 = test system: DMS-114
DMS-273 = test system: DMS-273
HOP-18 = test system: HOP-18
KM-20L2 = test system: KM-20L2
LXFL 529 = test system: LXFL 529
M19-MEL = test system: M19-MEL
SNB-78 = test system: SNB-78

Measured: GI50

O=C(O)CNC(=O)c1cccc2c(=O)c3ccccc3[nH]c12
inactive: 786-0 > 100 µM | A498 > 100 µM | A549 > 100 µM | ACHN > 100 µM | BT-549 91.8 µM | CAKI-1 > 100 µM | CCRF-CEM 97.3 µM | COLO 205 > 100 µM | DU-145 > 100 µM | EKVX > 100 µM | HCC 2998 > 100 µM | HCT-116 > 100 µM | HL-60 > 100 µM | HOP-62 > 100 µM | HOP-92 > 100 µM | HT-29 > 100 µM | Hs-578T > 100 µM | IGROV-1 26.9 µM | K562 > 100 µM | KM12 > 20.9 µM | LOX IMVI > 100 µM | M14 > 100 µM | MCF7 > 100 µM | MDA-MB-231 > 100 µM | MDA-MB-435 > 100 µM | MDA-N > 100 µM | MOLT-4 > 100 µM | Malme-3M > 100 µM | NCI-H226 > 100 µM | NCI-H23 > 100 µM | NCI-H460 > 100 µM | NCI-H522 > 100 µM | NCI/ADR-RES > 100 µM | OVCAR-3 > 100 µM | OVCAR-4 > 100 µM | OVCAR-5 > 100 µM | OVCAR-8 > 100 µM | PC-3 > 100 µM | RPMI-8226 > 100 µM | RXF 393 > 100 µM | SF-268 > 100 µM | SF-295 > 100 µM | SF-539 > 100 µM | SK-MEL-28 > 100 µM | SK-MEL-2 > 100 µM | SK-MEL-5 99.8 µM | SK-OV-3 > 100 µM | SN12C > 100 µM | SNB-19 > 100 µM | SNB-75 84.7 µM | SR 14.9 µM | SW-620 > 100 µM | T47D > 100 µM | TK-10 > 100 µM | U-251 > 100 µM | UACC-257 > 100 µM | UACC-62 99.8 µM | UO-31 70.1 µM
> 100 µM: HCT-15

CC(=O)O[C@]12CCCCC1C1(O)C(O)CCCC[C@H]12 (some centres not stated)
> 100 µM: HCT-15
inactive: 786-0 > 100 µM | A549 > 100 µM | ACHN > 100 µM | CCRF-CEM > 100 µM | COLO 205 > 100 µM | DMS-114 > 100 µM | DMS-273 > 100 µM | EKVX > 100 µM | HCT-116 > 100 µM | HL-60 > 100 µM | HOP-18 > 100 µM | HOP-62 > 100 µM | HT-29 > 100 µM | K562 > 100 µM | KM-20L2 > 100 µM | KM12 > 100 µM | LOX IMVI > 100 µM | LXFL 529 > 100 µM | M14 > 100 µM | M19-MEL > 100 µM | MOLT-4 > 100 µM | Malme-3M > 100 µM | NCI-H226 > 100 µM | NCI-H23 > 100 µM | NCI-H460 > 100 µM | NCI-H522 > 100 µM | OVCAR-4 > 100 µM | OVCAR-8 > 100 µM | RPMI-8226 > 100 µM | RXF 393 > 100 µM | SF-268 > 100 µM | SF-295 > 100 µM | SK-MEL-28 > 100 µM | SK-MEL-2 > 100 µM | SK-MEL-5 > 100 µM | SK-OV-3 > 100 µM | SN12C > 100 µM | SNB-19 > 100 µM | SNB-75 29.6 µM | SNB-78 > 100 µM | SR > 100 µM | SW-620 > 100 µM | TK-10 > 100 µM | U-251 > 100 µM | UACC-257 > 100 µM | UACC-62 > 100 µM | UO-31 > 100 µM
